Test results published in patent US11802120B2, “Fused cyclic urea derivatives as CRHR2 antagonist” (RaQualia Pharma Inc., priority 2018, dated 2023).
pIC50: −log10 of the molar value.

Tests used:
Format in all cases: cell-based
CRHR2 = target: T1, CRHR2 (Homo sapiens, UniProt Q13324); experiment: CRHR2 antagonistic activity (inhibitory activity against CRHR2)
T1 sequence (Q13324 1-411): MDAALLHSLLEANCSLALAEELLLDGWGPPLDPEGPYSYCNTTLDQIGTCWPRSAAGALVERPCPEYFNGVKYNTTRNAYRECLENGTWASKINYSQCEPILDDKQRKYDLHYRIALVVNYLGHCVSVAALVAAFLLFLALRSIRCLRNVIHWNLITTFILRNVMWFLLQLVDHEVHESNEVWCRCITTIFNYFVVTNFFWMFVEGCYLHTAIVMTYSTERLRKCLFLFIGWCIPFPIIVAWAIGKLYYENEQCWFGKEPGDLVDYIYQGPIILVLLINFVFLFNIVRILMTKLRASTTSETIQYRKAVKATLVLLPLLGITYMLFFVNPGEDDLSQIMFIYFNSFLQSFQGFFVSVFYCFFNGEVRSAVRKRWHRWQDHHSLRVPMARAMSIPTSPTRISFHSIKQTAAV

human CRHR2-alpha = target: T2, human CRHR2-alpha (Homo sapiens, UniProt Q13324); experiment: cAMP functional assay for human CRHR2 (LANCE Ultra cAMP, TR-FRET); details: CHO-K1 cells expressing human CRHR2-alpha, agonist human urocortin2 at EC80, cAMP; read-out: IC50 against CRHR2
T2 sequence (Q13324 1-411): T1 sequence (Q13324 1-411)
Procedure, shortened: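 CHO-K1 stable lines; 4,000 cells/well; compound 30 min, 25° C; EC80 agonist (human urocortin2 → CRHR2, CRF → CRHR1) 30 min, 25° C; buffer HBSS/0.1% BSA/0.5 mM IBMX/5 mM Hepes pH 7.4; Eu-cAMP tracer + ULight antibody 60 min; TR-FRET read; IC50 from % inhibition curves.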

human CRHR1-beta = target: T3, human CRHR1-beta (Homo sapiens, UniProt P34998); experiment: cAMP functional assay for human CRHR1 (LANCE Ultra cAMP, TR-FRET); details: CHO-K1 cells expressing human CRHR1-beta, agonist CRF at EC80, cAMP; read-out: IC50 against CRHR1
T3 sequence (P34998 24-444 isoform P34998-1 limits assumed): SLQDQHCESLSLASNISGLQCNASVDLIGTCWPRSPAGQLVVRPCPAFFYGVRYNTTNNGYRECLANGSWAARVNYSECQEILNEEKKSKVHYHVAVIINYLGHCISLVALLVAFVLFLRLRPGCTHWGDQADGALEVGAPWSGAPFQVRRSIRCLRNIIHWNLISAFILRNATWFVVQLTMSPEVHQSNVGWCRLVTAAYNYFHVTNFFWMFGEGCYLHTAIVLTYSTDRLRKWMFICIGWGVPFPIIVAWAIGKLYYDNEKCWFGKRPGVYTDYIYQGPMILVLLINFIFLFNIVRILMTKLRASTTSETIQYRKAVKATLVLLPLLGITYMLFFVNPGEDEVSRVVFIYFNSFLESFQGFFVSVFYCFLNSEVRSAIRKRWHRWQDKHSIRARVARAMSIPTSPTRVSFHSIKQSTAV
Method: cAMP functional assay for human CRHR1 and CRHR2
The ability of the compounds of this invention to inhibit either CRHR2 or CRHR1 is assessed by 3′,5′-cyclic adenosine monophosphate (cAMP) production in cells using the LANCE Ultra cAMP assay kit (ParkinElmer), which are designed based on the homogeneous time-resolved fluorescence resonance energy transfer (TR-FRET) immunoassay.
CHO-K1 (Chinese hamster ovary) cells stably expressing either human CRHR2-alpha (DiscoveRX, Cat. 95-0048C2) or human CRHR1-beta (DiscoveRX, Cat. 95-0047C2) are grown in HAM's F12 media supplemented with 10% fetal bovine serum (FBS), 100 units/mL penicillin, 100 microg/mL hygromycin and 0.5 microg/mL geneticin at 37° C. in 5% CO2 humidified incubator to 80% confluence. After 7 hours starvation treatment in culture media containing 0.1% FBS, the cells are washed with Hanks balanced salt solution (HBSS) and cryopreserved.
For cAMP assay, frozen cells are thawed and washed with HBSS, followed by resuspended in assay buffer (HBSS containing 0.1% bovine serum albumin, 0.5 mM isobutylmethylxanthine and 5 mM Hepes, pH 7.4) at the appropriate concentration for the assay. The cell suspensions are plated on 384-well microplates (Greiner Bio-One) at a density of 4,000 cells per well. After preincubating the cells with various concentrations of the compounds for 30 min at 25° C., an assay buffer containing EC80 concentration of each agonist is added and the cells are incubated for 30 min at 25° C. Human urocortin2 (Peptide Institute) and CRF (Peptide Institute) are used as agonists for CRHR2 and CRHR1, respectively. For the termination of assay, europium-labeled cAMP tracer and ULight (registered trademark) dye labeled cAMP antibodies, both prepared with Lance-Ultra cAMP detection reagent (Perkin Elmer) are added in the plate and incubate for 60 min at 25° C. After incubation, TR-FRET signal is detected by EnVision plate reader (PerkinElmer). The IC50 values for compounds are calculated from dose-response curves by fitting the percent inhibition using XLfit (ID Business Solutions).

| SMILES | pIC50 (CRHR2) | pIC50 (human CRHR2-alpha) | pIC50 (human CRHR1-beta) |
| --- | --- | --- | --- |
| Cc1ncc(Cl)cc1C(=O)N[C@H]1CC[C@H](Cn2c(=O)n(-c3ccccc3)c3ccccc32)CC1 [Example 1, 5-chloro-2-methyl-N-((1r,4r)-4-((2-oxo-3-phenyl-2,3-dihydro-1H-benzo[d]imidazol-1-yl)methyl)cyclohexyl)nicotinamide] | 6.41 | – | – |
| Cc1ncc(Cl)cc1C(=O)N[C@H]1CC[C@H](Cn2c(=O)n(Cc3ccccc3)c3ccccc32)CC1 [Example 2, N-((1r,4r)-4-((3-benzyl-2-oxo-2,3-dihydro-1H-benzo[d]imidazol-1-yl)methyl)cyclohexyl)-5-chloro-2-methylnicotinamide] | 6.74 | > 6.52 | – |
| CCn1c(=O)n(C[C@H]2CC[C@H](NC(=O)c3cc(Cl)cnc3C)CC2)c2ccccc21 [Example 2.46, reference compound] | 5.52 | – | – |
| Cc1ncc(Cl)cc1C(=O)N[C@H]1CC[C@H](Cn2c(=O)n(C)c3ccccc32)CC1 [Example 2.50, reference compound] | 4.89 | – | – |
| COc1ccc(-n2c(=O)n(C[C@H]3CC[C@H](NC(=O)c4cc(Cl)cnc4C)CC3)c3ccccc32)cn1 [Example 30, 5-chloro-N-((1r,4r)-4-((3-(6-methoxypyridin-3-yl)-2-oxo-2,3-dihydro-1H-benzo[d]imidazol-1-yl)methyl)cyclohexyl)-2-methylnicotinamide] | 7.22 | > 6.52 | > 6.00 |
| CNc1ccc(-n2c(=O)n(C[C@H]3CC[C@H](NC(=O)c4cc(Cl)cnc4C)CC3)c3ccccc32)cn1 [Example 91, 5-chloro-2-methyl-N-((1r,4r)-4-((3-(6-(methylamino)pyridin-3-yl)-2-oxo-2,3-dihydro-1H-benzo[d]imidazol-1-yl)methyl)cyclohexyl)nicotinamide] | – | > 6.52 | > 6.00 |
| CCNc1ccc(-n2c(=O)n(C[C@H]3CC[C@H](NC(=O)c4cc(Cl)cnc4C)CC3)c3ccccc32)cn1 [Example 92, 5-chloro-N-((1r,4r)-4-((3-(6-(ethylamino)pyridin-3-yl)-2-oxo-2,3-dihydro-1H-benzo [d]imidazol-1-yl)methyl)cyclohexyl)-2-methylnico-tinamide] | – | > 6.52 | > 6.00 |
| Cc1ncc(Cl)cc1C(=O)N[C@H]1CC[C@H](Cn2c(=O)n(-c3ccc(N(C)CCCO)nc3)c3ccccc32)CC1 [Example 94, 5-chloro-N-((1r,4r)-4-((3-(6-((3-hydroxypropyl)(methyl)amino)pyridin-3-yl)-2-oxo-2,3-dihydro-1H-benzo[d]imidazol-1-yl)methyl)cyclo-hexyl)-2-methylnicotinamide] | – | > 6.52 | > 6.00 |
| Cc1ncc(Cl)cc1C(=O)N[C@H]1CC[C@H](Cn2c(=O)n(-c3cnc4[nH]ncc4c3)c3ccccc32)CC1 [Example 128, 5-chloro-2-methyl-N-((1r,4r)-4-((2-oxo-3-(1H-pyrazolo[3,4-b]pyridin-5-yl)-2,3-dihydro-1H-benzo[d]imidazol-1-yl)methyl)cyclohexyl)nicotinamide] | 6.55 | > 6.52 | – |
| Cc1ncc(Cl)cc1C(=O)N[C@H]1CC[C@H](Cn2c(=O)n(-c3cnc4c(ccn4C)c3)c3ccccc32)CC1 [Example 148, 5-chloro-2-methyl-N-((1r,4r)-4-((3-(1-methyl-1H-pyrrolo [2,3-b]pyridin-5-yl)-2-oxo-2,3-dihydro-1H-benzo[d]imidazol-1-yl)methyl)cyclo-hexyl)nicotinamide] | 7.22 | > 6.52 | – |
| Cc1ncc(Cl)cc1C(=O)N[C@H]1CC[C@H](Cn2c(=O)n(-c3cccnc3)c3ccccc32)CC1 [Example 156, 5-chloro-2-methyl-N-((1r,4r)-4-((2-oxo-3-(pyridin-3-yl)-2,3-dihydro-1H-benzo[d]imidazol-1-yl)methyl)cyclo-hexyl)nicotinamide] | 6.55 | > 6.52 | – |
| Cc1ncc(Cl)cc1C(=O)N[C@H]1CC[C@H](Cn2c(=O)n(C3CCCCC3)c3ccccc32)CC1 [reference compound (A), reference compound] | 5.51 | – | – |
